Laboratory results: patent US20160244679A1, “SELECTIVE LIQUID-LIQUID EXTRACTION OF OXIDATIVE DESULFURIZATION REACTION PRODUCTS” (SAUDI ARABIAN OIL COMPANY, priority 2011, published 2016)

Experiments:
Assay type in all cases: physicochemical
[1] = Batch liquid-liquid extraction of oxidized model diesel with 70 W % aqueous formic acid, gas chromatography (Example 2, Table 11A); conditions: for total extraction: two batch extractions, about 1:1, 23° C., 1 atmosphere
Method: (§1) A quantity of 100 mL of a model diesel feed formed of xylene, DBT, DBT sulfoxide and DBT sulfone (with a total sulfur content of 1635 ppmw) was oxidized by 30 W % aqueous hydrogen peroxide at a temperature of 37° C. and at a pressure of 1 atmosphere for a period of 70 minutes with solid ZnO catalyst (1.2 g) and a ratio of oxidant (H2O2) to organic sulfur of 4:1 in acetic acid, about 10 mL. After the sold catalyst settled, the model diesel was removed for extraction of sulfoxidation products and removal of aqueous H2O2 using an embodiment of the selective solvent formulation of the present invention.
A quantity of oxidized model diesel feed as used in Example 1 was subjected to extraction to remove DBT sulfoxide and DBT sulfone using a selective solvent formulation of 70 W % aqueous formic acid. Two batch extractions were sequentially conducted using a solvent to model diesel ratio of about 1:1 at a temperature of 23° C. and at a pressure of 1 atmosphere for a period of 2 minutes, during which the contents were stirred. The total extraction of DBT sulfoxide and DBT sulfone was 94 W % and 56 W % respectively. Furthermore, the co-extraction of xylene was limited to 2 W % after the first extraction, and increased by 3.8 W % after the second extraction, based on the normalization percentage of the peak regions for the GC analysis for each extraction. The normalization method is qualitative and quasi-quantitative, so that the peak area varies. The slight positive (3.8%) of xylene is due to the normalization of the sum of all peaks and it was changed by material balance variation and/or with measurement error.
The co-extraction of DBT (not oxidized) was limited to 10 W % after both extractions. The total sulfur measured by sulfur speciation determined that the overall sulfur content was reduced by 56 W % as shown in Table 11B.

[2] = Batch liquid-liquid extraction of oxidized model diesel with 50 W % aqueous methanol, gas chromatography (Example 3, Table 12A)
Method: as §1
A quantity of oxidized model diesel feed as used in Example 1 was subjected to extraction to remove DBT sulfoxide and DBT sulfone using a selective solvent formulation of 50 W % aqueous methanol. One extraction was conducted using a solvent to model diesel ratio of about 1:1 at a temperature of 23° C. and at a pressure of 1 atmosphere for a period of 2 minutes, during which the contents were stirred. The total extraction of DBT sulfoxide was 51.5 W %. […] The co-extraction of DBT (not oxidized) was limited to 3.1 W %. The total sulfur measured by sulfur speciation determined that the overall sulfur content was reduced by 16 W % as shown at Table 12B.

[3] = Batch liquid-liquid extraction of oxidized model diesel with 50 W % aqueous acetic acid, gas chromatographic analysis (Example 1, Table 10A); conditions: for total extraction: two batch extractions, solvent-to-model diesel about 1:1, 23° C., 1 atmosphere; for co-extraction: after both extractions
Method: as §1
DBT sulfoxide and DBT sulfone were extracted using a selective solvent formulation of 50 W % aqueous acetic acid. Two batch extractions were sequentially conducted using a solvent-to-model diesel ratio of about 1:1 at a temperature of 23° C. and at a pressure of 1 atmosphere for a period of 2 minutes, during which the contents were stirred. The total extraction of DBT sulfoxide and DBT sulfone was 95 W % and 55 W % respectively. Furthermore, the co-extraction of xylene was limited to 1.9 W % after both extractions, and the co-extraction of DBT (not oxidized) was limited to 13.2 W % after both extractions. The total sulfur measured by sulfur speciation (using an ANTEK Model 9000 analyzer commercially available from Antek Instruments, Inc., Houston, Tex. USA) determined that the overall sulfur content was reduced by 55 W % as shown at Table 10B.

[4] = 70 W % aqueous formic acid, 2 minutes
[5] = Model diesel oxidized, before extraction
[6] = after 1st extraction, 70 W % aqueous formic acid
[7] = after 1st extraction, 70 W % aqueous formic acid, solvent:diesel about 1:1, 23° C., 2 minutes
[8] = after 2nd extraction, 70 W % aqueous formic acid
[9] = after 2nd extraction, 70 W % aqueous formic acid, solvent:diesel about 1:1, 23° C., 2 minutes
[10] = after 1st extraction, 50 W % aqueous methanol
[11] = after 1st extraction, 50 W % aqueous methanol, solvent:diesel about 1:1, 23° C., 2 minutes
[12] = 50 W % aqueous acetic acid, 2 minutes
[13] = after 1st extraction, 50 W % aqueous acetic acid
[14] = after 1st extraction, 50 W % aqueous acetic acid, solvent:diesel about 1:1, 23° C., 2 minutes
[15] = after 2nd extraction, 50 W % aqueous acetic acid
[16] = after 2nd extraction, 50 W % aqueous acetic acid, solvent:diesel about 1:1, 23° C., 2 minutes
[17] = 50 W % aqueous methanol, one extraction

O=S1(=O)c2ccccc2-c2ccccc21 [DBT sulfone, dibenzothiophene 5,5-dioxide]
total extraction [1, 4]: 56 W % | GC abundance in model diesel [1, 5]: 25.09 abundance units | change of GC abundance versus oxidized model diesel [1, 6]: (−30.4%) | GC abundance in model diesel [1, 7]: 17.46 abundance units | change of GC abundance versus oxidized model diesel [1, 8]: (−55.6%) | GC abundance in model diesel [1, 9]: 11.14 abundance units | GC abundance in model diesel [2, 5]: 25.09 abundance units | change of GC abundance versus oxidized model diesel [2, 10]: (−2.4%) | GC abundance in model diesel [2, 11]: 24.49 abundance units | total extraction [3, 12]: 55 W % | GC abundance in model diesel [3, 5]: 25.09 abundance units | change of GC abundance versus oxidized model diesel [3, 13]: (−23.7%) | GC abundance in model diesel [3, 14]: 19.15 abundance units | change of GC abundance versus oxidized model diesel [3, 15]: (−54.8%) | GC abundance in model diesel [3, 16]: 11.39 abundance units

[O-][s+]1c2ccccc2c2ccccc21 [DBT sulfoxide, dibenzothiophene 5-oxide]
total extraction [1, 4]: 94 W % | GC abundance in model diesel [1, 5]: 24.02 abundance units | change of GC abundance versus oxidized model diesel [1, 6]: (−73.1%) | GC abundance in model diesel [1, 7]: 6.45 abundance units | change of GC abundance versus oxidized model diesel [1, 8]: (−94%) | GC abundance in model diesel [1, 9]: 1.38 abundance units | total extraction ([2]; 50 W % aqueous methanol, one extraction, about 1:1, 23° C., 1 atmosphere, 2 minutes): 51.5 W % | GC abundance in model diesel [2, 5]: 24.02 abundance units | change of GC abundance versus oxidized model diesel [2, 10]: (−51.5%) | GC abundance in model diesel [2, 11]: 11.64 abundance units | total extraction [3, 12]: 95 W % | GC abundance in model diesel [3, 5]: 24.02 abundance units | change of GC abundance versus oxidized model diesel [3, 13]: (−67.5%) | GC abundance in model diesel [3, 14]: 7.81 abundance units | change of GC abundance versus oxidized model diesel [3, 15]: (−94.8%) | GC abundance in model diesel [3, 16]: 1.26 abundance units

c1ccc2c(c1)sc1ccccc12 [DBT, dibenzothiophene]
co-extraction ([1]; 70 W % aqueous formic acid, after both extractions): 10 W % | GC abundance in model diesel [1, 5]: 24.44 abundance units | change of GC abundance versus oxidized model diesel [1, 6]: (−10.4%) | GC abundance in model diesel [1, 7]: 21.89 abundance units | change of GC abundance versus oxidized model diesel [1, 8]: (−10.0%) | GC abundance in model diesel [1, 9]: 22 abundance units | co-extraction [2, 17]: 3.1 W % | GC abundance in model diesel [2, 5]: 24.44 abundance units | change of GC abundance versus oxidized model diesel [2, 10]: (−3.1%) | GC abundance in model diesel [2, 11]: 23.69 abundance units | co-extraction ([3]; 50 W % aqueous acetic acid): 13.2 W % | GC abundance in model diesel [3, 5]: 24.44 abundance units | change of GC abundance versus oxidized model diesel [3, 13]: (−9.6%) | GC abundance in model diesel [3, 14]: 22.09 abundance units | change of GC abundance versus oxidized model diesel [3, 15]: (−13.2%) | GC abundance in model diesel [3, 16]: 21.22 abundance units

xylene
co-extraction ([1]; 70 W % aqueous formic acid, after the first extraction): 2 W % | increase after the second extraction (normalized GC peak) ([1]; 70 W % aqueous formic acid, after the second extraction): 3.8 W % | GC abundance in model diesel [1, 5]: 9283.7 abundance units | change of GC abundance versus oxidized model diesel [1, 6]: (−1.9%) | GC abundance in model diesel [1, 7]: 9111.6 abundance units | change of GC abundance versus oxidized model diesel [1, 8]: (+3.8%) | GC abundance in model diesel [1, 9]: 9635.5 abundance units | amount increased after extraction (normalized GC results) [2, 17]: 2.8 W % | co-extraction [2, 17]: no co-extraction | GC abundance in model diesel [2, 5]: 9283.7 abundance units | change of GC abundance versus oxidized model diesel [2, 10]: +2.8%) | GC abundance in model diesel [2, 11]: 9540.4 abundance units | co-extraction ([3]; 50 W % aqueous acetic acid): 1.9 W % | GC abundance in model diesel [3, 5]: 9283.7 abundance units | change of GC abundance versus oxidized model diesel [3, 13]: (−1.4%) | GC abundance in model diesel [3, 14]: 9155.2 abundance units | change of GC abundance versus oxidized model diesel [3, 15]: (−1.9%) | GC abundance in model diesel [3, 16]: 9108.19 abundance units
